In US7642047B2, “Method of screening cell death modulators” (priority 2003, dated 2010):

Key:
[1] = system: NGF-deprived sympathetic neurons; test: Survival assay of NGF-deprived sympathetic neurons; assay type: cell-based, rat; set-up: protection of NGF-deprived neurons (FIG. 5B legend): dose or concentration left out as unconfirmed
Experimental: (§1) Briefly, the neurons of postnatal day-1-2 Han/Wi strain rats were grown six days in vitro on polyornithine -laminin-coated dishes or glass coverslips with 100 ng/ml of human GDNF (PeproTech) or 30 ng/ml of 2.5 S mouse NGF (Promega). […] To reduce the number of nonneuronal cells, 1 μM cytosine arabinoside (Sigma-Aldrich) was always included next day after plating, but was not added to factor-deprived neurons. To deprive GDNF, the cultures were washed gently three times with GDNF-free culture medium. To remove NGF, the cultures were washed once with NGF-free medium and function-blocking anti-NGF antibodies (Roche) were added. The compounds of interest were added and initial neurons were counted immediately after neurotrophic factor deprivation. Living neurons were counted daily by a “blind” experimenter not aware of the identity of experimental groups. The following compounds were assayed: broad-range caspase inhibitor boc-aspartyl(OMe) -fluoromethylketone. […] When the compounds were dissolved in DMSO, the same amount of DMSO was always added to the control cultures.
(§2) In all studies described below, the neurons from newborn rat SCG were maintained in sister dishes with GDNF (100 ng/ml) or NGF (30 ng/ml) for six DIV, then deprived of these factors for 48 or 72 hours, and analysed. NGF- and GDNF-responsive neurons were always analysed in parallel and received identical treatment.

[2] = system: GDNF-deprived sympathetic neurons; test: Survival assay of GDNF-deprived sympathetic neurons; assay type: cell-based, rat; set-up: protection of GDNF-deprived neurons (FIG. 5B legend): dose or concentration left out as unconfirmed
Experimental: as §1, §2

[3] = system: newborn rat sympathetic neurons from the superior cervical ganglion; test: Survival of newly isolated sympathetic neurons maintained with neurotrophic factor; assay type: cell-based
Experimental: FIGS. 1A, 1B, and 1C. […] (1A) Newly isolated neurons were grown with GDNF (100 ng/ml), NGF (30 ng/ml) or without neurotrophic factors for eight days. The living neurons were counted daily and expressed as percent of initial neurons, counted two hours after plating. The mean±standard error of the mean of three independent cultures is shown for each data point. (1B) Newly isolated neurons were maintained with different doses of GDNF for six days. The living neurons were counted daily and expressed as percent of initial neurons, counted two hours after plating. For comparison, survival with NGF (30 ng/ml) is also shown. […] Living neurons were counted daily and expressed as percent of initial neurons counted immediately after factor deprivation. […]
Briefly, the neurons of postnatal day-1-2 Han/Wi strain rats were grown six days in vitro on polyornithine -laminin-coated dishes or glass coverslips with 100 ng/ml of human GDNF (PeproTech) or 30 ng/ml of 2.5 S mouse NGF (Promega). […] The compounds of interest were added and initial neurons were counted immediately after neurotrophic factor deprivation. Living neurons were counted daily by a “blind” experimenter not aware of the identity of experimental groups. […]
In similar conditions, about 98% of the NGF-maintained neurons had survived (FIG. 1 A). […] NGF- and GDNF-responsive neurons were always analysed in parallel and received identical treatment. […]

[4] = BAF at 50 μM, living neurons counted 72 h after deprivation
[5] = living neurons counted 72 h after treatment and deprivation

COC(=O)CC(NC(=O)OC(C)(C)C)C(=O)CF (stereo not drawn) [BAF, boc-aspartyl(OMe)-fluoromethylketone]
effect on death of NGF-deprived neurons [1, 4]: almost completely blocked death | protection of NGF-deprived neurons (FIG. 5B legend) [1, 5]: protects | effect on death of GDNF-deprived neurons [2, 4]: almost completely blocked death | protection of GDNF-deprived neurons (FIG. 5B legend) [2, 5]: protects

B1: GDNF: human GDNF (PeproTech), glial cell line-derived neurotrophic factor (protein, UniProt P39905 78-211, looked up)
Glial cell line-derived …: SPDKQMAVLPRRERNRQAAAANPENSRGKGRRGQRGKNRGCVLTAIHLNVTDLGLGYETKEELIFRYCSGSCDAAETTYDKILKNLSRNRRLVSDKVGQACCRPIAFDDDLSFLDDNLVYHILRKHSAKRCGCI
initially plated neurons survived ([3]; by sixth day in vitro, GDNF 100 ng/ml or NGF 30 ng/ml, percent of initial neurons counted two hours after plating): about 34% | saturating concentration for SCG neurons ([3]; dose-dependence study, neurons maintained six days): 100 ng/mL
